Data: ChEMBL document CHEMBL3045561, “Feeding deterrents from Zanthoxylum schinifolium against two stored-product insects” (J Agric Food Chem, 2009)

What was measured:
[1] = system: Sitophilus zeamais; test: Feeding deterrent activity against adult Sitophilus zeamais on compound pretreated wheat flour disks assessed as relative food consumption rate at 100 ppm after 3 days by flour disk bioassay (reference value: 122.72 +/-4.32 ug/mg/day); format: functional
[2] = system: Tribolium castaneum; test: Feeding deterrent activity against adult Tribolium castaneum (red flour beetle) on compound pre-treated wheat flour disks at 100 ppm after 3 days by flour disk bioassay; format: functional
[3] = system: Sitophilus zeamais; test: Feeding deterrent activity against adult Sitophilus zeamais on compound pretreated wheat flour disks at 30 ppm after 3 days by flour disk bioassay; format: functional
[4] = system: Sitophilus zeamais; test: Feeding deterrent activity against adult Sitophilus zeamais on compound pretreated wheat flour disks assessed as mortality at 3 ppm after 3 days by flour disk bioassay (reference value: 0%); format: functional
[5] = system: Tribolium castaneum; test: Feeding deterrent activity against adult Tribolium castaneum (red flour beetle) on compound pre-treated wheat flour disks at 10 ppm after 3 days by flour disk bioassay; format: functional
[6] = system: Tribolium castaneum; test: Feeding deterrent activity against adult Tribolium castaneum (red flour beetle) on compound pre-treated wheat flour disks assessed as relative growth rate at 3 ppm after 3 days by flour disk bioassay (reference value: 29.49 +/-1.35 ug/mg/day); format: functional
[7] = system: Tribolium castaneum; test: Feeding deterrent activity against adult Tribolium castaneum (red flour beetle) on compound pre-treated wheat flour disks assessed as relative food consumption rate at 100 ppm after 3 days by flour disk bioassay (reference value: 143.22 +/-4.32 ug/mg/day); format: functional
[8] = system: Tribolium castaneum; test: Feeding deterrent activity against adult Tribolium castaneum (red flour beetle) on compound pre-treated wheat flour disks assessed as relative food consumption rate at 10 ppm after 3 days by flour disk bioassay (reference value: 143.22 +/-4.32 ug/mg/day); format: functional
[9] = system: Tribolium castaneum; test: Feeding deterrent activity against adult Tribolium castaneum (red flour beetle) on compound pre-treated wheat flour disks assessed as relative growth rate at 1000 ppm after 3 days by flour disk bioassay (reference value: 29.49 +/-1.35 ug/mg/day); format: functional
[10] = system: Sitophilus zeamais; test: Feeding deterrent activity against adult Sitophilus zeamais on compound pretreated wheat flour disks assessed as mortality at 100 ppm after 3 days by flour disk bioassay (reference value: 0%); format: functional
[11] = system: Tribolium castaneum; test: Feeding deterrent activity against adult Tribolium castaneum (red flour beetle) on compound pre-treated wheat flour disks assessed as mortality at 300 ppm after 3 days by flour disk bioassay (reference value: 0%); format: functional
[12] = system: Sitophilus zeamais; test: Feeding deterrent activity against adult Sitophilus zeamais on compound pretreated wheat flour disks assessed as mortality at 30 ppm after 3 days by flour disk bioassay (reference value: 0%); format: functional
[13] = system: Sitophilus zeamais; test: Feeding deterrent activity against adult Sitophilus zeamais on compound pretreated wheat flour disks at 1000 ppm after 3 days by flour disk bioassay; format: functional
[14] = system: Tribolium castaneum; test: Feeding deterrent activity against adult Tribolium castaneum (red flour beetle) on compound pre-treated wheat flour disks assessed as food utilization rate at 30 ppm after 3 days by flour disk bioassay (reference value: 20.59 +/-1.47%); format: functional
[15] = system: Sitophilus zeamais; test: Feeding deterrent activity against adult Sitophilus zeamais on compound pretreated wheat flour disks at 100 ppm after 3 days by flour disk bioassay; format: functional
[16] = system: Tribolium castaneum; test: Feeding deterrent activity against adult Tribolium castaneum (red flour beetle) on compound pre-treated wheat flour disks assessed as food utilization rate at 100 ppm after 3 days by flour disk bioassay (reference value: 20.59 +/-1.47%); format: functional
[17] = system: Tribolium castaneum; test: Feeding deterrent activity against adult Tribolium castaneum (red flour beetle) on compound pre-treated wheat flour disks assessed as mortality at 100 ppm after 3 days by flour disk bioassay (reference value: 0%); format: functional
[18] = system: Sitophilus zeamais; test: Feeding deterrent activity against adult Sitophilus zeamais on compound pretreated wheat flour disks assessed as food utilization rate at 300 ppm after 3 days by flour disk bioassay (reference value: 11.09 +/-1.12%); format: functional
[19] = system: Tribolium castaneum; test: Feeding deterrent activity against adult Tribolium castaneum (red flour beetle) on compound pre-treated wheat flour disks assessed as relative food consumption rate at 3 ppm after 3 days by flour disk bioassay (reference value: 143.22 +/-4.32 ug/mg/day); format: functional
[20] = system: Tribolium castaneum; test: Feeding deterrent activity against adult Tribolium castaneum (red flour beetle) on compound pre-treated wheat flour disks assessed as relative growth rate at 10 ppm after 3 days by flour disk bioassay (reference value: 29.49 +/-1.35 ug/mg/day); format: functional
[21] = system: Sitophilus zeamais; test: Feeding deterrent activity against adult Sitophilus zeamais on compound pretreated wheat flour disks at 300 ppm after 3 days by flour disk bioassay; format: functional
[22] = system: Tribolium castaneum; test: Feeding deterrent activity against adult Tribolium castaneum (red flour beetle) on compound pre-treated wheat flour disks after 3 days by flour disk bioassay; format: functional, organism-based
[23] = system: Tribolium castaneum; test: Feeding deterrent activity against adult Tribolium castaneum (red flour beetle) on compound pre-treated wheat flour disks at 30 ppm after 3 days by flour disk bioassay; format: functional
[24] = system: Sitophilus zeamais; test: Feeding deterrent activity against adult Sitophilus zeamais on compound pretreated wheat flour disks assessed as relative food consumption rate at 10 ppm after 3 days by flour disk bioassay (reference value: 122.72 +/-4.32 ug/mg/day); format: functional
[25] = system: Tribolium castaneum; test: Feeding deterrent activity against adult Tribolium castaneum (red flour beetle) on compound pre-treated wheat flour disks at 3 ppm after 3 days by flour disk bioassay; format: functional
[26] = system: Sitophilus zeamais; test: Feeding deterrent activity against adult Sitophilus zeamais on compound pretreated wheat flour disks at 10 ppm after 3 days by flour disk bioassay; format: functional
[27] = system: Tribolium castaneum; test: Feeding deterrent activity against adult Tribolium castaneum (red flour beetle) on compound pre-treated wheat flour disks at 1000 ppm after 3 days by flour disk bioassay; format: functional
[28] = system: Sitophilus zeamais; test: Feeding deterrent activity against adult Sitophilus zeamais on compound pretreated wheat flour disks assessed as relative growth rate at 1000 ppm after 3 days by flour disk bioassay (reference value: 13.61 +/-1.13 ug/mg/day); format: functional

CCCCCCCc1cc(=O)c2ccccc2n1C [SCHINIFOLINE]
Activity [1]: 50.29 µg/mg/day
FDI [2]: 66.28%
FDI [3]: 26.69%
mortality at 3 ppm [4]: 0%
FDI [5]: 18.64%
Activity [6]: 28.85 µg/mg/day
Activity [7]: 53.37 µg/mg/day
Activity [8]: 119.29 µg/mg/day
Activity [9]: 0.07 µg/mg/day
mortality at 100 ppm [10]: 0%
mortality at 300 ppm [11]: 8%
mortality at 30 ppm [12]: 2%
FDI [13]: 92.15%
ECI [14]: 16.5%
FDI [15]: 59.19%
ECI [16]: 11.57%
mortality at 100 ppm [17]: 2%
ECI [18]: 5.92%
Activity [19]: 139.51 µg/mg/day
Activity [20]: 24.24 µg/mg/day
FDI [21]: 72.35%
EC50 [22]: 47.81 ppm
FDI [23]: 45.07%
Activity [24]: 114.13 µg/mg/day
FDI [25]: 4.46%
FDI [26]: 10.28%
FDI [27]: 98.34%
Activity [28]: 0.4 µg/mg/day

COc1ccc2c(OC)c3ccoc3nc2c1OC [SKIMMIANINE]
Activity [1]: 59.65 µg/mg/day
FDI [2]: 57.45%
FDI [3]: 26.12%
mortality at 3 ppm [4]: 0%
FDI [5]: 13.21%
Activity [6]: 27.92 µg/mg/day
Activity [7]: 61.88 µg/mg/day
Activity [8]: 124.71 µg/mg/day
Activity [9]: 1.23 µg/mg/day
mortality at 100 ppm [10]: 0%
mortality at 300 ppm [11]: 6%
mortality at 30 ppm [12]: 0%
FDI [13]: 82.43%
ECI [14]: 15.12%
FDI [15]: 47.32%
ECI [16]: 13.72%
mortality at 100 ppm [17]: 2%
ECI [18]: 6.81%
Activity [19]: 137.89 µg/mg/day
Activity [20]: 24.21 µg/mg/day
FDI [21]: 60.24%
EC50 [22]: 75.71 ppm
FDI [23]: 30.12%
Activity [24]: 112.77 µg/mg/day
FDI [25]: 4.31%
FDI [26]: 10.21%
FDI [27]: 89.56%
Activity [28]: 0.77 µg/mg/day
